Experimental data published in ChEMBL document CHEMBL4613324, “Design, Synthesis, and Evaluation of a Series of Novel Super Long-Acting DPP-4 Inhibitors for the Treatment of Type 2 Diabetes” (J Med Chem, 2020).

What was measured:
[1] = tested on: Rhesus monkey; assay: Ex-vivo inhibition of DPP4 in plasma isolated from rhesus monkey treated at 10 mg/kg, ig after 2 weeks by fluorescence based assay relative to control; assay type: functional; conditions: Macaca mulatta, po, 336 h
[2] = target: CYP2A6 (Homo sapiens, UniProt P11509); assay: Stability assessed as recombinant human CYP2A6 mediated compound metabolism by measuring parent compound remaining after 30 mins relative to control; assay type: ADME; conditions: read-out: Stability
[3] = target: CYP2C8 (Homo sapiens, UniProt P10632); assay: Stability assessed as recombinant human CYP2C8 mediated compound metabolism by measuring parent compound remaining after 30 mins relative to control; assay type: ADME; conditions: read-out: Stability
[4] = target: CYP2E1 (Homo sapiens, UniProt P05181); assay: Stability assessed as recombinant human CYP2E1 mediated compound metabolism by measuring parent compound remaining after 30 mins relative to control; assay type: ADME; conditions: read-out: Stability
CYP2E1, sequence (P05181 whole entry): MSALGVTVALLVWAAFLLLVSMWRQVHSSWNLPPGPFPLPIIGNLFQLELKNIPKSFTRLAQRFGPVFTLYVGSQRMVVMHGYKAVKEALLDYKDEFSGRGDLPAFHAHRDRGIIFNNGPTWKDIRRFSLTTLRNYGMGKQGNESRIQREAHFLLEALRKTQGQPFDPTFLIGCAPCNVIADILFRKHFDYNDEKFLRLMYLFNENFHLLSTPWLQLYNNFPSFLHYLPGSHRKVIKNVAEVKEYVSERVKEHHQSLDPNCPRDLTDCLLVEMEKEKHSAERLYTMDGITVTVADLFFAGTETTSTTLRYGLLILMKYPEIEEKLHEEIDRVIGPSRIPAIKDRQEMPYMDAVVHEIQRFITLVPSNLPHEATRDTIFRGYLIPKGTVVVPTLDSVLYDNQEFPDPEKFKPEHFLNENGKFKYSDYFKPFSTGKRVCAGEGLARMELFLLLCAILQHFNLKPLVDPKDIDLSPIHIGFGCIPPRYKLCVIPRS

[5] = target: CYP3A4 (Homo sapiens, UniProt P08684); assay: Stability assessed as recombinant human CYP3A4 mediated compound metabolism by measuring parent compound remaining after 30 mins relative to control; assay type: ADME; conditions: read-out: Stability
CYP3A4, sequence (P08684 whole entry): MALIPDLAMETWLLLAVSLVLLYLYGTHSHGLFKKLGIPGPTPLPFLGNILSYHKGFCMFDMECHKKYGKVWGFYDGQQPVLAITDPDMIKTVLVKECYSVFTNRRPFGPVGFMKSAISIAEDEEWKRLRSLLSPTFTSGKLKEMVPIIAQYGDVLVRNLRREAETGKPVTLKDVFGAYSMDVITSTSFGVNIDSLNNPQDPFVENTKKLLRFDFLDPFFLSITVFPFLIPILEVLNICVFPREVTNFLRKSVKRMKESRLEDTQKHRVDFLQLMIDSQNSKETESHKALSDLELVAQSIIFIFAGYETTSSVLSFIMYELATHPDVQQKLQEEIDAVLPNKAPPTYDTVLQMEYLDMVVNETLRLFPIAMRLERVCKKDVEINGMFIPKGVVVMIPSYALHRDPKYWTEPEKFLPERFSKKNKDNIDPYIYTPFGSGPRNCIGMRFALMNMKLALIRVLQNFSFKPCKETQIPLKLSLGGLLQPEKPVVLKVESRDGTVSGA

[6] = target: T1, Cytochrome P450 1A2 (Homo sapiens, UniProt P05177); assay: (§1) Inhibition of recombinant human CYP1A2; assay type: ADME
T1 sequence (P05177 whole entry): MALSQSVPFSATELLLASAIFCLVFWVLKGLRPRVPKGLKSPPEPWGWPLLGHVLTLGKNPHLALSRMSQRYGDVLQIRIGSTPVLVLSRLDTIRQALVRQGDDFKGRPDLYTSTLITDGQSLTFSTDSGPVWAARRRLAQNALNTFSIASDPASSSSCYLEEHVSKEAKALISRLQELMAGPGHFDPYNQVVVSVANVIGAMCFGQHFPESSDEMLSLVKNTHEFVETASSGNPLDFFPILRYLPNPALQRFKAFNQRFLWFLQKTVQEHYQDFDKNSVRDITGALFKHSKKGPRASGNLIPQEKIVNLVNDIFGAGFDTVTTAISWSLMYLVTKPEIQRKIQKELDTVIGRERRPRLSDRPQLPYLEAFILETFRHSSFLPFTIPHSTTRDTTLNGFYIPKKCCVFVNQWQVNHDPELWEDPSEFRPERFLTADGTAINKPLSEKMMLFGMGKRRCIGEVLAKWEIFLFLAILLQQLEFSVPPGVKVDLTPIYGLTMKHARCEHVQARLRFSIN

[7] = target: Cytochrome P450 2E1 (Homo sapiens, UniProt P05181); assay: Inhibition of recombinant human CYP2E1; assay type: ADME
Cytochrome P450 2E1, sequence (P05181 whole entry): as the sequence (P05181 whole entry) above

[8] = target: T2, Cytochrome P450 2C8 (Homo sapiens, UniProt P10632); assay: (§2) Inhibition of recombinant human CYP2C8; assay type: ADME
T2 sequence (P10632 whole entry): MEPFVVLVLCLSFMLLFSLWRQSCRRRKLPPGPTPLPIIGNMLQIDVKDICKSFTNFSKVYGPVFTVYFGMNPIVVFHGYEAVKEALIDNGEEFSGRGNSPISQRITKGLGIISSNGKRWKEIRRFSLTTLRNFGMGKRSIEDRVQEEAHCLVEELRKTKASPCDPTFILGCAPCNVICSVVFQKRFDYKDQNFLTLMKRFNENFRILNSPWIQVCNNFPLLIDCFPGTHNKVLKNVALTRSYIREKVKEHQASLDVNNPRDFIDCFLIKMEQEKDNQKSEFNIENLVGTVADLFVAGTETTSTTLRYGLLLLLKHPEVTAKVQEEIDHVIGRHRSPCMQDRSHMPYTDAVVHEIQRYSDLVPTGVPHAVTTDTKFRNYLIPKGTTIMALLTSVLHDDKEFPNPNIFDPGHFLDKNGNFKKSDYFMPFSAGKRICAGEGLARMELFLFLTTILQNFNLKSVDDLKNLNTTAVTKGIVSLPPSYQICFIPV

[9] = target: T3, Cytochrome P450 2A6 (Homo sapiens, UniProt P11509); assay: Inhibition of recombinant human CYP2A6; assay type: ADME
T3 sequence (P11509 whole entry): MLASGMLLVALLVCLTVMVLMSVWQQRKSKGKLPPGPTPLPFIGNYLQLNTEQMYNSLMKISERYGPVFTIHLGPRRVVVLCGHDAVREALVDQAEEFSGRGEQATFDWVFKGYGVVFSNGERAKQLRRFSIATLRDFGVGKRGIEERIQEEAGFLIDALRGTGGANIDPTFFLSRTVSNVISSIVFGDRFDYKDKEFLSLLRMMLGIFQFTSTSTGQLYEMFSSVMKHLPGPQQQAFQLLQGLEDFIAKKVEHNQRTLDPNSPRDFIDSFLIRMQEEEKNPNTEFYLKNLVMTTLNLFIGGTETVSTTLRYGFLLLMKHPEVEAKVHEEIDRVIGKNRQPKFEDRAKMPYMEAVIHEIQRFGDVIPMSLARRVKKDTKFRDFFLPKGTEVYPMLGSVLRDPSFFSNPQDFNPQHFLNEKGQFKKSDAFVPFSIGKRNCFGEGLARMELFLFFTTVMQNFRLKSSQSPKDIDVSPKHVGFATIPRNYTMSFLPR

[10] = target: Cytochrome P450 2C19 (Homo sapiens, UniProt P33261); assay: Inhibition of recombinant human CYP2C19; assay type: ADME
Cytochrome P450 2C19, sequence (P33261 whole entry): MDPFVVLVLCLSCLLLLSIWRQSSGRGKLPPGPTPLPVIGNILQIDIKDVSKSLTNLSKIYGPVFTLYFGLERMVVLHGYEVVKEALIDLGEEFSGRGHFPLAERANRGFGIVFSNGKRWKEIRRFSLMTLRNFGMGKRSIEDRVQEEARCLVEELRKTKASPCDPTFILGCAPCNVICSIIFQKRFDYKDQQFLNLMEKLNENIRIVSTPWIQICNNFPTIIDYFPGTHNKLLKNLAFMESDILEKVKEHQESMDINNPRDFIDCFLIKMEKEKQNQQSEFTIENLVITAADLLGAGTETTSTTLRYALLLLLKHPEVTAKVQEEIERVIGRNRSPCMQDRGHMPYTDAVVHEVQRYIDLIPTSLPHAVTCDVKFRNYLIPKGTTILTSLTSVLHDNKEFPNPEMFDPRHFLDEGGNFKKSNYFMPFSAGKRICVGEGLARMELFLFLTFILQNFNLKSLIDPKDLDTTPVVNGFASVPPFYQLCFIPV

[11] = target: T4, Cytochrome P450 3A5 (Homo sapiens, UniProt P20815); assay: Inhibition of recombinant human CYP3A5 using testosterone as substrate; assay type: ADME
T4 sequence (P20815 whole entry): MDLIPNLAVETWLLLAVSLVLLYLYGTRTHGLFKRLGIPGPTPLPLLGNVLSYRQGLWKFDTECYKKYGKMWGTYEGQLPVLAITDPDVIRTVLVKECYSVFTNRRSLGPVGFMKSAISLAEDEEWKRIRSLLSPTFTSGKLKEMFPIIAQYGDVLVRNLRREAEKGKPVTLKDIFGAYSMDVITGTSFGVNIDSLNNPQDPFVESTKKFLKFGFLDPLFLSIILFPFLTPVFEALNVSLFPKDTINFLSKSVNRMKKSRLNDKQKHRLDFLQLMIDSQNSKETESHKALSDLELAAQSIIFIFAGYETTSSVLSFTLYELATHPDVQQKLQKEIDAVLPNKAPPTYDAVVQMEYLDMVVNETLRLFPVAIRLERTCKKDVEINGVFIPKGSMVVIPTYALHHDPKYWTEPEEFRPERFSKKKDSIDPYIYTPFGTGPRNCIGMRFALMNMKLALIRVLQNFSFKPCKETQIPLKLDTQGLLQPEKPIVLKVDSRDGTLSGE

[12] = target: T5, Cytochrome P450 3A4 (Homo sapiens, UniProt P08684); assay: (§3) Inhibition of recombinant human CYP3A4 using midazolam as substrate; assay type: ADME
T5 sequence (P08684 whole entry): as the sequence (P08684 whole entry) above

[13] = target: T4, Cytochrome P450 3A5; assay: Inhibition of recombinant human CYP3A5 using midazolam as substrate; assay type: ADME
[14] = target: T1, Cytochrome P450 1A2; assay: as §1; assay type: ADME; remark: listed apart in the source
[15] = target: T6, Cytochrome P450 2B6 (Homo sapiens, UniProt P20813); assay: Inhibition of recombinant human CYP2B6; assay type: ADME
T6 sequence (P20813 whole entry): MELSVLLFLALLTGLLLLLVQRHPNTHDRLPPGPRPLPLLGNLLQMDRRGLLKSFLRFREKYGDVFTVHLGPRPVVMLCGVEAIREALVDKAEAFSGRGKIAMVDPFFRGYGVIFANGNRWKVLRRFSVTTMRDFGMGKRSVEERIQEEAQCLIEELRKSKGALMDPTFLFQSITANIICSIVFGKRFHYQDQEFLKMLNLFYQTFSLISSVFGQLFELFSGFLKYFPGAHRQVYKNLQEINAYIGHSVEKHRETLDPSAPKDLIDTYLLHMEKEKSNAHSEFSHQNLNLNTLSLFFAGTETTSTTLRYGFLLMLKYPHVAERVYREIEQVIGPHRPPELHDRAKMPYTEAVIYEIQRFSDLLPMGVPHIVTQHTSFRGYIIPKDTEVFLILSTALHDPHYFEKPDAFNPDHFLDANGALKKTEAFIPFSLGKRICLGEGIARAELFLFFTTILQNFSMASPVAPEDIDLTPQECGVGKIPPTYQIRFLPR

[16] = target: T2, Cytochrome P450 2C8; assay: as §2; assay type: ADME; remark: listed apart in the source
[17] = target: T5, Cytochrome P450 3A4; assay: as §3; assay type: ADME; remark: listed apart in the source
[18] = AUC in male Sprague-Dawley rat during 3-month repeated dose toxicology study; assay type: ADME; conditions: in vivo
[19] = tested on: Mus musculus; assay: Antidiabetic activity in ob/ob mouse assessed as reduction in decrease in HbA1c level at 3 mg/kg, po dosed once every three days for 31 day relative to control; assay type: functional; set-up: scale not given: the % may be the effect or the level left
[20] = tested on: Mus musculus; assay: Antidiabetic activity in ob/ob mouse assessed as reduction in decrease in HbA1c level at 10 mg/kg, po dosed once every three days for 31 day relative to control; assay type: functional; set-up: scale not given: the % may be the effect or the level left

With `CS(=O)(=O)n1cc2c(n1)CN([C@@H]1C[C@H](N)[C@@H](c3cc(F)ccc3F)O[C@@H]1C(F)(F)F)C2` [COFROGLIPTIN] the inhibition in vivo at 10 mg/kg [1] was 76.2%, the remaining at 0.5 h [2] was greater than 95% and the remaining at 0.5 h [3] was greater than 95%. It also gave a remaining at 0.5 h [4] greater than 95%, a remaining at 0.5 h [5] greater than 95% and an IC50 [6] greater than 100 µM. For the same molecule, the IC50 [7] was greater than 100 µM, the IC50 [8] was greater than 100 µM and the IC50 [9] was greater than 100 µM. The IC50 [10] was greater than 100 µM, the IC50 [11] was greater than 100 µM and the IC50 [12] was greater than 100 µM. It also gave an IC50 [13] greater than 100 µM, an IC50 [14] greater than 100 µM and an IC50 [15] greater than 100 µM. It also gave an IC50 [16] of 76.3 µM, an IC50 [17] of 45.8 µM and an AUC [18] of 3600 µg·h/mL. The Activity [19] was 19.1% and the Activity [20] was 16.2%.
